Laboratory results taken from patent publication US20240279205A1, “NOVEL BENZIMIDAZOLE DERIVATIVE” (Carna Biosciences, Inc., priority 2020, published 2024).
Structures can show the parent of a compound that is named as a salt.

Target: T1, human STING (hSTING) (Homo sapiens, UniProt Q86WV6)
T1 construct: host or cells: HEK-Blue ISG cells (HEK293-derived SEAP reporter line)
Assay: Inhibition test of intracellular human STING (hSTING) pathway using SEAP reporter cells (HEK-Blue ISG), stimulation with Compound 3
Format: cell-based
Set-up: hSTING inhibitory activity: scale not given here
Settings: Compound 3 10 nM stimulation, 21 hours; for IC50: read-out: hSTING inhibitory activity
Method: Inhibition test of intracellular human STING (hSTING) pathway using reporter cells
Since STING activates the transcription factor IRF3 upon ligand stimulation, the activity of STING can be evaluated by a reporter assay using a secretory alkaline phosphatase (SEAP reporter) integrated downstream of an IRF-inducible promoter.
That is, the hSTING inhibitory activity of the test compound was evaluated using HEK-Blue™MISG cells (manufactured by Invivogen, #hkb-isg-1) incorporating a SEAP reporter. Activation of hSTING was performed by stimulation with the small molecule ligand Compound 3 as described in the literature (Ramanjulu, J. M., et al., Nature. 2018, 564 (7736), 439-443). HEK-Blue™MISG cells were seeded in a 96-well plate and cultured overnight at 37° C. in a 5% CO2 incubator. To each well of this cell culture plate, a test compound solution adjusted to a final concentration of 0.1 to 10 µM of the test compound was added, cultured for 1 hour in a CO2 incubator, and then Compound 3 (final concentration 10 nM) was added and further cultured in a CO2 incubator for 21 hours. After collecting the culture supernatant of each well, the reporter activity was measured by color development reaction with alkaline phosphatase.
The reporter activity of the test compound non-addition and Compound 3 addition group was set to 100%, and the reporter activity of the test compound non-addition and Compound 3 non-addition group was set to 0%. The IC50 value was determined by regression analysis of the inhibitory rate determined from the reporter activity at each compound concentration and the test compound concentration (logarithm).

T1 sequence (Q86WV6 whole entry H232R): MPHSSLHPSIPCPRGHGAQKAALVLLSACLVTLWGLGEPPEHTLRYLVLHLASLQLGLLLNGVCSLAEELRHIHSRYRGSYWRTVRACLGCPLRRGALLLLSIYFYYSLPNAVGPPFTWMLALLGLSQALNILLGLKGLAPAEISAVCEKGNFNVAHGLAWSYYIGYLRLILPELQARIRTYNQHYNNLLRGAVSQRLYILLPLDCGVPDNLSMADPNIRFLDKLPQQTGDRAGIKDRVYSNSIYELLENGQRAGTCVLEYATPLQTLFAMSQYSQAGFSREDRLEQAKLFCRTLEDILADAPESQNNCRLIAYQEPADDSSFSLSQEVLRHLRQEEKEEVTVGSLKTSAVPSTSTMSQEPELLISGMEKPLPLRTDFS

IC50 [µM]	hSTING inhibitory activity	Compound
≥ 10		CN(C)Cc1ccccc1Oc1ccc2[nH]c(Nc3c[nH]c4ccc(Cl)nc34)nc2c1 [Embodiment 83, N-(5-chloro-1H-pyrrolo[3,2-b]pyridin-3-yl)-5-{2-[(dimethylamino)methyl]phenoxy}-1H-benzo [d]imidazole-2-amine formate]
	* * *	CNn1c(Nc2c[nH]c3ccc(C)cc23)nc2cc(C(F)(F)F)cc(F)c21 [Embodiment 277, 7-fluoro-N1-methyl-N2-(5-methyl-1H-indol-3-yl)-5-(trifluoromethyl)-1H-benzo[d]imidazole-1,2-diamine]
	* *	Brc1ccc2[nH]cc(Nc3nc4ccccc4[nH]3)c2c1 [Example 1, N-(5-bromo-1H-indol-3-yl)-1H-benzo[d]imidazol-2-amine]
	* *	Fc1cc(C2CCOCC2)cc2nc(Nc3c[nH]c4ccc(Cl)nc34)[nH]c12 [Embodiment 175, N-(5-Chloro-1H-pyrrolo[3,2-b]pyridin-3-yl)-7-fluoro-5-(tetrahydro-2H-pyran-4-yl)-1H-benzo[d]imidazol-2-amine]
≥ 10		CN(C)CCn1c(Nc2c[nH]c3ccc(Cl)nc23)nc2ccc(Oc3ccccc3)cc21 [Embodiment 134, N-(5-Chloro-1H-pyrrolo[3,2-b]pyridin-3-yl)-1-[2-(dimethylamino)ethyl]-6-phenoxy-1H-benzo[d] imidazole-2-amine diformate]
	* * *	Cn1c(Nc2c[nH]c3ccc(Br)nc23)nc2cc(Oc3ccccc3)ccc21 [Embodiment 41, N-(5-bromo-1H-pyrrolo[3,2-b]pyridin-3-yl)-1-methyl-5-phenoxy-1H-benzo[d]imidazol-2-amine]
≥ 10		Clc1ccc2[nH]cc(Nc3nc4c5c(ccc4[nH]3)OCCO5)c2n1 [Embodiment 135, N-(5-chloro-1H-pyrrolo[3,2-b]pyridin-3-yl)-7,8-dihydro-3H-[1,4] dioxino[2′,3′:3, 4]benzo[1,2-d]imidazol-2-amine]
1 to 10		Clc1ccc2[nH]cc(Nc3nc4ccccc4[nH]3)c2c1 [Example 15, N-(5-chloro-1H-indol-3-yl)-1H-benzo[d]imidazol-2-amine]
	* *	Clc1ccc2[nH]cc(Nc3nc4cc(C5=CCOCC5)ccc4[nH]3)c2n1 [Embodiment 105, N-(5-chloro-1H-pyrrolo[3,2-b]pyridin-3-yl)-5-(3,6-dihydro-2H-pyran-4-yl)-1H-benzo[d] imidazol-2-amine]
	* * *	Cc1ccc2[nH]cc(Nc3nc4cc(C(F)(F)F)cc(F)c4n3N(C)C)c2c1 [Embodiment 280, 7-fluoro-N1,N1-dimethyl-N2-(5-methyl-1H-indol-3-yl)-5-(trifluoromethyl)-1H-benzo[d]imidazole-1,2-diamine]
≥ 10		Fc1ccc2[nH]cc(Nc3nc4ccccc4[nH]3)c2c1 [Example 14, N-(5-fluoro-1H-indol-3-yl)-1H-benzo[d]imidazol-2-amine]
	* *	COC(=O)c1ccc2[nH]cc(Nc3nc4cc(Oc5ccccc5)ccc4[nH]3)c2c1 [Example 22, methyl 3-[(5-phenoxy-1H-benzo[d]imidazol-2-yl)amino]-1H-indole-5-carboxylate]
1 to 10		COCCn1c(Nc2c[nH]c3ccc(Cl)nc23)nc2cc(Cl)c(Cl)cc21 [Embodiment 110, 5,6-dichloro-N-(5-chloro-1H-pyrrolo[3,2-b]pyridin-3-yl)-1-(2-methoxyethyl)-1H-benzo[d] imidazole-2-amine]
	* *	CS(=O)(=O)c1cccc(Oc2ccc3[nH]c(Nc4c[nH]c5ccc(Br)nc45)nc3c2)c1 [Embodiment 67, N-(5-bromo-1H-pyrrolo[3,2-b]pyridin-3-yl)-5-[3-(methylsulfonyl)phenoxy]-1H-benzo[d]imidazol-2-amine]
≥ 10		CN(C)C(=O)Cn1c(Nc2c[nH]c3ccc(Cl)cc23)nc2cc(C(F)(F)F)ccc21 [Embodiment 229, 2-{2-[(5-chloro-1H-indol-3-yl)amino]-5-(trifluoromethyl)-1H-benzo [d]imidazol-1-yl}-N,N-dimethyl Acetamide]
1 to 10		COCCn1c(Nc2c[nH]c3ccc(Br)nc23)nc2cc(Oc3ccccc3)ccc21 [Embodiment 92, N-(5-bromo-1H-pyrrolo[3,2-b]pyridin-3-yl)-1-(2-methoxyethyl)-5-phenoxy-1H-benzo[d]imidazol-2-amine]
	* * *	Cc1c(C(F)(F)F)ccc2c1nc(Nc1c[nH]c3ccc(Cl)cc13)n2C [Embodiment 276, N-(5-Chloro-1H-indol-3-yl)-1,4-dimethyl-5-(trifluoromethyl)-1H-benzo[d]imidazol-2-amine]

IC50 [µM]	hSTING inhibitory activity	Compound
	* * *	Cn1c(Nc2c[nH]c3ccc(Br)nc23)nc2cc(C(F)(F)F)ccc21 [Embodiment 43, N-(5-bromo-1H-pyrrolo[3,2-b]pyridin-3-yl)-1-methyl-5-(trifluoromethyl)-1H-benzo[d]imidazol-2-amine]
≥ 10		Cn1c(Nc2c[nH]c3ccc(Cl)nc23)nc2ccc(F)c(F)c21 [Embodiment 184, N-(5-Chloro-1H-pyrrolo[3,2-b]pyridin-3-yl)-6,7-difluoro-1-methyl-1H-benzo[d]imidazol-2-amine]
	* *	FC(F)(F)c1ccc2[nH]cc(Nc3nc4cc(Oc5ccccc5)ccc4[nH]3)c2n1 [Embodiment 55, 5-phenoxy-N-[5-(trifluoromethyl)-1H-pyrrolo[3,2-b]pyridin-3-yl]-1H-benzo[d]imidazol-2-amine]
	* *	Cn1c(Nc2c[nH]c3ccc(Cl)cc23)nc2cc(C3CCOCC3)ccc21 [Embodiment 197, N-(5-Chloro-1H-indol-3-yl)-1-methyl-5-(tetrahydro-2H-pyran-4-yl)-1H-benzo[d]imidazole-2-amine formate]
≥ 10		Cn1c(Nc2c[nH]c3ccc(Cl)nc23)nc2c(F)c(F)ccc21 [Embodiment 183, N-(5-Chloro-1H-pyrrolo[3,2-b]pyridin-3-yl)-4,5-difluoro-1-methyl-1H-benzo[d]imidazol-2-amine]
≥ 10		O=C(c1ccc2[nH]cc(Nc3nc4cc(Oc5ccccc5)ccc4[nH]3)c2c1)N1CCOCC1 [Example 28, morpholino {3-[(5-phenoxy-1H-benzo[d]imidazol-2-yl)amino]-1H-indol-5-yl} methanone]
1 to 10		C[Si](C)(C)C#Cc1ccc2[nH]cc(Nc3nc4cc(Oc5ccccc5)ccc4[nH]3)c2n1 [Embodiment 106, 5-phenoxy-N-{5-[(trimethylsilyl)ethynyl]-1H-pyrrolo[3,2-b]pyridin-3-yl}-1H-benzo[d]imidazol-2-amine]
	* *	COC(=O)c1cccc2[nH]c(Nc3c[nH]c4ccc(Br)cc34)nc12 [Example 20, methyl 2-[(5-bromo-1H-indol-3-yl)amino]-1H-benzo[d]imidazole-4-carboxylate]
≥ 10		Oc1ccnc2c(Nc3nc4cc(Oc5ccccc5)ccc4[nH]3)c[nH]c12 [Embodiment 76, 3-[(5-phenoxy-1H-benzo[d]imidazol-2-yl)amino]-1H-pyrrolo [3,2-b]pyridin-7-ol formate]
1 to 10		CN(C)Cc1cccc(Oc2ccc3[nH]c(Nc4c[nH]c5ccc(Cl)nc45)nc3c2)c1 [Embodiment 81, N-(5-chloro-1H-pyrrolo[3,2-b]pyridin-3-yl)-5-{3-[(dimethylamino)methyl]phenoxy}-1H-benzo [d]imidazole-2-amine formate]
≥ 10		Clc1ccc2[nH]cc(Nc3nc4c(-c5cccnc5)cccc4[nH]3)c2n1 [Embodiment 147, N-(5-Chloro-1H-pyrrolo[3,2-b]pyridin-3-yl)-4-(pyridin-3-yl)-1H-benzo[d]imidazol-2-amine]
≥ 10		Cc1cnc2[nH]cc(Nc3nc4cc(Oc5ccccc5)ccc4[nH]3)c2c1 [Embodiment 107, N-(5-methyl-1H-pyrrolo[2,3-b]pyridin-3-yl)-5-phenoxy-1H-benzo[d]imidazol-2-amine]
≥ 10		Cn1c(Nc2c[nH]c3ccc(Cl)nc23)nc2ccc(OC(F)(F)F)cc21 [Embodiment 211, N-(5-Chloro-1H-pyrrolo[3,2-b]pyridin-3-yl)-1-methyl-6-(trifluoromethoxy)-1H-benzo[d] imidazol-2-amine]
	* *	Fc1cc2[nH]c(Nc3c[nH]c4ccc(Cl)nc34)nc2cc1Oc1ccccc1 [Embodiment 193, N-(5-Chloro-1H-pyrrolo[3,2-b]pyridin-3-yl)-6-fluoro-5-phenoxy-1H-benzo[d]imidazol-2-amine]
1 to 10		COc1cccc2[nH]c(Nc3c[nH]c4ccc(Br)nc34)nc12 [Embodiment 61, N-(5-bromo-1H-pyrrolo[3,2-b]pyridin-3-yl)-4-methoxy-1H-benzo[d]imidazol-2-amine]
	* *	CN(C)n1c(Nc2c[nH]c3cc(F)c(F)cc23)nc2cc(C(F)(F)F)cc(F)c21 [Embodiment 279, N2-(5,6-difluoro-1H-indol-3-yl)-7-fluoro-N1,N1-dimethyl-5-(trifluoromethyl)-1H-benzo[d] imidazole-1,2-diamine]
